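Each compound was tested at five concentrations against cells in 96-well plates for 48 hours. GI50 is the concentration that inhibits growth by half. TGI denotes the concentration required for complete inhibition of growth.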
How the values were obtained:
Assay in all cases: NCI tumour cell line growth inhibition, 48 h
HOP-92 NSCLC = system: HOP-92 NSCLC
T-47D breast = system: T-47D breast
NCI/ADR-RES ovarian = system: NCI/ADR-RES ovarian
SF-268 CNS = system: SF-268 CNS
SK-MEL-2 melanoma = system: SK-MEL-2 melanoma
COLO 205 colon = system: COLO 205 colon
MOLT-4 leukemia = system: MOLT-4 leukemia
SK-OV-3 ovarian = system: SK-OV-3 ovarian
HCT-15 colon = system: HCT-15 colon
HT29 colon = system: HT29 colon
OVCAR-4 ovarian = system: OVCAR-4 ovarian
U251 CNS = system: U251 CNS
K-562 leukemia = system: K-562 leukemia
UO-31 renal = system: UO-31 renal
EKVX NSCLC = system: EKVX NSCLC
KM12 colon = system: KM12 colon
SNB-19 CNS = system: SNB-19 CNS
UACC-257 melanoma = system: UACC-257 melanoma
IGROV1 ovarian = system: IGROV1 ovarian
OVCAR-3 ovarian = system: OVCAR-3 ovarian
MCF7 breast = system: MCF7 breast
MDA-MB-231 breast = system: MDA-MB-231 breast
HCC-2998 colon = system: HCC-2998 colon
SF-539 CNS = system: SF-539 CNS
HL-60(TB) leukemia = system: HL-60(TB) leukemia
SK-MEL-28 melanoma = system: SK-MEL-28 melanoma
NCI-H460 lung = system: NCI-H460 lung
PC-3 prostate = system: PC-3 prostate
786-0 renal = system: 786-0 renal
RPMI-8226 leukemia = system: RPMI-8226 leukemia
DU-145 prostate = system: DU-145 prostate
NCI-H226 lung = system: NCI-H226 lung
CAKI-1 renal = system: CAKI-1 renal
ACHN renal = system: ACHN renal
SF-295 CNS = system: SF-295 CNS
MALME-3M melanoma = system: MALME-3M melanoma
CCRF-CEM leukemia = system: CCRF-CEM leukemia
RXF 393 renal = system: RXF 393 renal
NCI-H522 lung = system: NCI-H522 lung
NCI-H23 lung = system: NCI-H23 lung
SK-MEL-5 melanoma = system: SK-MEL-5 melanoma
HCT-116 colon = system: HCT-116 colon
MDA-MB-435 = system: MDA-MB-435
OVCAR-8 ovarian = system: OVCAR-8 ovarian
SW-620 colon = system: SW-620 colon
LOX IMVI melanoma = system: LOX IMVI melanoma
OVCAR-5 ovarian = system: OVCAR-5 ovarian
A498 renal = system: A498 renal
SN12C renal = system: SN12C renal
BT-549 breast = system: BT-549 breast
A549 NSCLC = system: A549 NSCLC
UACC-62 melanoma = system: UACC-62 melanoma
TK-10 renal = system: TK-10 renal
HOP-62 NSCLC = system: HOP-62 NSCLC
M14 melanoma = system: M14 melanoma
HS 578T breast = system: HS 578T breast

`COc1cc(/C=C/c2cc(/C=C/c3ccc(O)c(OC)c3)n(-c3c(Cl)cccc3Cl)c(=O)n2)ccc1O` was tested, and the GI50 (HOP-92 NSCLC) was 4.22 µM, the TGI (HOP-92 NSCLC) was 16.4 µM and the GI50 (T-47D breast) was 3.44 µM. For the same compound, the TGI (T-47D breast) was 22.7 µM, the GI50 (NCI/ADR-RES ovarian) was 3.53 µM and the TGI (NCI/ADR-RES ovarian) was 22 µM. It also gave a GI50 (SF-268 CNS) of 3.12 µM, a TGI (SF-268 CNS) of 13.7 µM and a GI50 (SK-MEL-2 melanoma) of 3.3 µM. The TGI (SK-MEL-2 melanoma) was 12.9 µM, the GI50 (COLO 205 colon) was 2.84 µM and the TGI (COLO 205 colon) was 8.95 µM. The GI50 (MOLT-4 leukemia) was 3.38 µM, the TGI (MOLT-4 leukemia) was 22.6 µM and the GI50 (SK-OV-3 ovarian) was 2.78 µM. For the same compound, the TGI (SK-OV-3 ovarian) was 10.6 µM, the GI50 (HCT-15 colon) was 2.44 µM and the TGI (HCT-15 colon) was 9.66 µM. For the same compound, the GI50 (HT29 colon) was 1.77 µM, the TGI (HT29 colon) was 3.36 µM and the GI50 (OVCAR-4 ovarian) was 4.61 µM. For the same compound, the TGI (OVCAR-4 ovarian) was 16.9 µM, the GI50 (U251 CNS) was 2.37 µM and the TGI (U251 CNS) was 6.36 µM. It also gave a GI50 (K-562 leukemia) of 3.11 µM, a TGI (K-562 leukemia) of over 100 µM and a GI50 (UO-31 renal) of 2.74 µM. It also gave a TGI (UO-31 renal) of 12.3 µM, a GI50 (EKVX NSCLC) of 3.26 µM and a TGI (EKVX NSCLC) of 14.8 µM. For the same compound, the GI50 (KM12 colon) was 2.02 µM, the TGI (KM12 colon) was 5.27 µM and the GI50 (SNB-19 CNS) was 3.54 µM. For the same compound, the TGI (SNB-19 CNS) was 13.2 µM, the GI50 (UACC-257 melanoma) was 3.32 µM and the TGI (UACC-257 melanoma) was 11.3 µM. The GI50 (IGROV1 ovarian) was 3.01 µM, the TGI (IGROV1 ovarian) was 12.3 µM and the GI50 (OVCAR-3 ovarian) was 3.19 µM. For the same compound, the TGI (OVCAR-3 ovarian) was 12.1 µM, the GI50 (MCF7 breast) was 2 µM and the TGI (MCF7 breast) was 11 µM. For the same compound, the GI50 (MDA-MB-231 breast) was 3.65 µM, the TGI (MDA-MB-231 breast) was 15.1 µM and the GI50 (HCC-2998 colon) was 1.83 µM. For the same compound, the TGI (HCC-2998 colon) was 3.53 µM, the GI50 (SF-539 CNS) was 2.18 µM and the TGI (SF-539 CNS) was 6.92 µM. For the same compound, the GI50 (HL-60(TB) leukemia) was 2.64 µM, the TGI (HL-60(TB) leukemia) was 14.4 µM and the GI50 (SK-MEL-28 melanoma) was 2.74 µM. For the same compound, the TGI (SK-MEL-28 melanoma) was 10.1 µM, the GI50 (NCI-H460 lung) was 3.39 µM and the TGI (NCI-H460 lung) was 11.8 µM. For the same compound, the GI50 (PC-3 prostate) was 4.68 µM, the TGI (PC-3 prostate) was 25.3 µM and the GI50 (786-0 renal) was 2.74 µM. For the same compound, the TGI (786-0 renal) was 8.51 µM, the GI50 (RPMI-8226 leukemia) was 2.96 µM and the TGI (RPMI-8226 leukemia) was 22.7 µM. The GI50 (DU-145 prostate) was 3.48 µM, the TGI (DU-145 prostate) was 13 µM and the GI50 (NCI-H226 lung) was 3.27 µM. It also gave a TGI (NCI-H226 lung) of 9.44 µM, a GI50 (CAKI-1 renal) of 14.6 µM and a TGI (CAKI-1 renal) of 30 µM. For the same compound, the GI50 (ACHN renal) was 2.84 µM, the TGI (ACHN renal) was 12.7 µM and the GI50 (SF-295 CNS) was 2.87 µM. For the same compound, the TGI (SF-295 CNS) was 9.52 µM, the GI50 (MALME-3M melanoma) was 3.88 µM and the TGI (MALME-3M melanoma) was 15.7 µM. It also gave a GI50 (CCRF-CEM leukemia) of 3.21 µM, a TGI (CCRF-CEM leukemia) of 70.6 µM and a GI50 (RXF 393 renal) of 2.18 µM. For the same compound, the TGI (RXF 393 renal) was 4.92 µM, the GI50 (NCI-H522 lung) was 1.55 µM and the TGI (NCI-H522 lung) was 3.23 µM. The GI50 (NCI-H23 lung) was 2.38 µM, the TGI (NCI-H23 lung) was 6.68 µM and the GI50 (SK-MEL-5 melanoma) was 2.18 µM. For the same compound, the TGI (SK-MEL-5 melanoma) was 4.86 µM, the GI50 (HCT-116 colon) was 1.31 µM and the TGI (HCT-116 colon) was 5.25 µM. The GI50 (MDA-MB-435) was 1.63 µM, the TGI (MDA-MB-435) was 5.98 µM and the GI50 (OVCAR-8 ovarian) was 3.34 µM. The TGI (OVCAR-8 ovarian) was 10.5 µM, the GI50 (SW-620 colon) was 3.11 µM and the TGI (SW-620 colon) was 10.5 µM. For the same compound, the GI50 (LOX IMVI melanoma) was 1.68 µM, the TGI (LOX IMVI melanoma) was 3.57 µM and the GI50 (OVCAR-5 ovarian) was 2.76 µM. The TGI (OVCAR-5 ovarian) was 11 µM, the GI50 (A498 renal) was 3.79 µM and the TGI (A498 renal) was 13.2 µM. The GI50 (SN12C renal) was 4.82 µM, the TGI (SN12C renal) was 19.5 µM and the GI50 (BT-549 breast) was 2.07 µM. The TGI (BT-549 breast) was 6.67 µM, the GI50 (A549 NSCLC) was 4.03 µM and the TGI (A549 NSCLC) was 15 µM. The GI50 (UACC-62 melanoma) was 2.59 µM, the TGI (UACC-62 melanoma) was 7.42 µM and the GI50 (TK-10 renal) was 2.91 µM. For the same compound, the TGI (TK-10 renal) was 10.1 µM, the GI50 (HOP-62 NSCLC) was 3.41 µM and the TGI (HOP-62 NSCLC) was 12.8 µM. It also gave a GI50 (M14 melanoma) of 2.38 µM, a TGI (M14 melanoma) of 6.87 µM and a GI50 (HS 578T breast) of 5.48 µM. It also gave a TGI (HS 578T breast) of over 100 µM.
